# According to patent US7091202B2, “4-arylspirocycloalkyl-2-aminopyrimidine carboxamide KCNQ potassium channel modulators” (Bristol-Myers Squibb Company, priority 2004, dated 2006):
# Biological target: T1, hQ23 (HEK-293 cell line stably transfected with one of the members of the KCNQ family) (Homo sapiens, UniProt O43525+O43526)
# T1 construct: expressed in transfected cells; host or cells: HEK-293, stably transfected
# Experiment: Thallium flux assay for KCNQ channel blockers (FLIPR, BTC dye)
# Type: cell-based
# Conditions: hQ23 cells, thallium flux
# In short: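 HEK-293 cells stably expressing a KCNQ member, loaded with BTC-AM (2 μM) in chloride-free buffer, pH 7.3; compounds added at 1% DMSO, then Tl2SO4 stimulus on FLIPR (488/540 nm, 60 s). Minimal active concentration set at ≥4 SD above negative control; IC50 from 10-point 1:3 series, single-site logistic fit versus the positive-control blocker.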
# T1 sequence (O43526 whole entry): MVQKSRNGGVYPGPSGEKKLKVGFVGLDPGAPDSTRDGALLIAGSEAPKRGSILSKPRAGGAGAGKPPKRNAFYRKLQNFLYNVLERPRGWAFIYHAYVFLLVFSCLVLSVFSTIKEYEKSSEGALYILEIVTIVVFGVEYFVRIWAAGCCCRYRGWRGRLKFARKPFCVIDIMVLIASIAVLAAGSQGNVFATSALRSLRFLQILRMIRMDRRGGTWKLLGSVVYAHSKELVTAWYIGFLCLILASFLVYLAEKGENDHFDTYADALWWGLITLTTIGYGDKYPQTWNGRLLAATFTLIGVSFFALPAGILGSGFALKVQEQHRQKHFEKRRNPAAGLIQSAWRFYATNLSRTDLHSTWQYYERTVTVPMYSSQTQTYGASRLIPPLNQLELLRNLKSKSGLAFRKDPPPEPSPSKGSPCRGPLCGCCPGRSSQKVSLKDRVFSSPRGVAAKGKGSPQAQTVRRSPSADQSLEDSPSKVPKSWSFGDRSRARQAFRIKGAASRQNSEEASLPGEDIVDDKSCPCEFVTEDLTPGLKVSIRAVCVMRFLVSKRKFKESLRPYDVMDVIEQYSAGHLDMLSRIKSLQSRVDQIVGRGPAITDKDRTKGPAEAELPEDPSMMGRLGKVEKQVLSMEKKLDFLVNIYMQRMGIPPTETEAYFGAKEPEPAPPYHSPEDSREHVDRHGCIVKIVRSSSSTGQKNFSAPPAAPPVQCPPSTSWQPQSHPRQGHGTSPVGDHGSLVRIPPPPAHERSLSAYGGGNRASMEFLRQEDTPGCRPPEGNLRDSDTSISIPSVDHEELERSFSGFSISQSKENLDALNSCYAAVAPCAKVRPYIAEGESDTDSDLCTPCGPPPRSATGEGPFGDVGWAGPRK
# T1 sequence (O43525 whole entry): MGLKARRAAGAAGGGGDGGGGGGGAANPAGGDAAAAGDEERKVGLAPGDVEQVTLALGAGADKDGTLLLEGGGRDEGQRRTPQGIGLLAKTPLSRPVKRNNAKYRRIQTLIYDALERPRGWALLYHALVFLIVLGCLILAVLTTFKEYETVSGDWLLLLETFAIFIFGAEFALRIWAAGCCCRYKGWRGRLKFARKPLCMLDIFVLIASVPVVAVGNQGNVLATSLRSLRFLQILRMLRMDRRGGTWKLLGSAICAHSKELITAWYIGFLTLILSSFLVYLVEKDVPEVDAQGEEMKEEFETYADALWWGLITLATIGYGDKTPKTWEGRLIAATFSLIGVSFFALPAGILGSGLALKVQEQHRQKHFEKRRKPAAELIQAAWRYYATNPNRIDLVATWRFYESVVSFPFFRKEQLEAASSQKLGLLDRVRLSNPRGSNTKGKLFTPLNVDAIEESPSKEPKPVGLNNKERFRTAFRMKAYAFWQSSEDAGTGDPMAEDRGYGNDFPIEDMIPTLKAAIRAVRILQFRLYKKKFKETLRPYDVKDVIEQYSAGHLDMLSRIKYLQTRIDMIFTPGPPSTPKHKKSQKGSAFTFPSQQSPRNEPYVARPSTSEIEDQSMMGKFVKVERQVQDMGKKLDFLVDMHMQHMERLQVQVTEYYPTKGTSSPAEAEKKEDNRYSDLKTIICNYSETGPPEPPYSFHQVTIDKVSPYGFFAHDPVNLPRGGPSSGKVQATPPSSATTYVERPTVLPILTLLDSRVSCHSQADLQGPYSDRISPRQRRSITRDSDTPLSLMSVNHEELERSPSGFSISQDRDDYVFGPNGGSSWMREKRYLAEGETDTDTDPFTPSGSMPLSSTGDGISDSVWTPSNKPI
row,SMILES,EC50 [nM]
1,"CCC(C)Nc1ncc(C(=O)NC(C)c2cccc3ccccc23)c(C2(c3ccccc3)CCCC2)n1 (centres unmarked) [Example 99, 5-pyrimidinecarboxamide, 2-[(1-methylpropyl)amino]-N-[1-(1-naphthalenyl)ethyl]-4-(1-phenylcyclopentyl)-]",293
2,"CC(NC(=O)c1cnc(NC2CCCC2)nc1C1(c2ccccc2)CCCC1)c1cccc2ccccc12 (centres unmarked) [Example 100, 5-pyrimidinecarboxamide, 2-(cyclopentylamino)-N-[1-(1-naphthalenyl)ethyl]-4-(1-phenylcyclopentyl)-]",160
3,"O=C(NCc1cccc2ccccc12)c1cnc(NC2CC2)nc1C1(c2ccccc2)CCCC1 [Example 101, 5-pyrimidinecarboxamide, 2-(cyclopropylamino)-N-(1-naphthalenylmethyl)-4-(1-phenylcyclopentyl)-]",669
4,"CC1CCC(Nc2ncc(C(=O)NCc3cccc4ccccc34)c(C3(c4ccccc4)CCCC3)n2)CC1 (centres unmarked) [Example 102, 5-pyrimidinecarboxamide, 2-[(4-methylcyclohexyl)amino]-N-(1-naphthalenylmethyl)-4-(1-phenylcyclopentyl)-]",194
5,"CC1CCCN(c2ncc(C(=O)NCc3cccc4ccccc34)c(C3(c4ccccc4)CCCC3)n2)C1 (centres unmarked) [Example 103, 5-pyrimidinecarboxamide, 2-(3-methyl-1-piperidinyl)-N-(1-naphthalenylmethyl)-4-(1-phenylcyclopentyl)-]",66
6,"CC1CCN(c2ncc(C(=O)NCc3cccc4ccccc34)c(C3(c4ccccc4)CCCC3)n2)CC1 [Example 104, 5-pyrimidinecarboxamide, 2-(4-methyl-1-piperidinyl)-N-(1-naphthalenylmethyl)-4-(1-phenylcyclopentyl)-]",10
7,"CCC(C)Nc1ncc(C(=O)NCc2cccc3ccccc23)c(C2(c3ccccc3)CCCC2)n1 (centres unmarked) [Example 105, 5-pyrimidinecarboxamide, 2-[(1-methylpropyl)amino]-N-(1-naphthalenylmethyl)-4-(1-phenylcyclopentyl)-]",604
8,"CC1CCC(Nc2ncc(C(=O)NCc3ccc(Cl)c(Cl)c3)c(C3(c4ccccc4)CCCC3)n2)CC1 (centres unmarked) [Example 106, 5-pyrimidinecarboxamide, N-[(3,4-dichlorophenyl)methyl]-2-[(4-methylcyclohexyl)amino]-4-(1-phenylcyclopentyl)-]",130
9,"CC1CCCN(c2ncc(C(=O)NCc3ccc(Cl)c(Cl)c3)c(C3(c4ccccc4)CCCC3)n2)C1 (centres unmarked) [Example 107, 5-pyrimidinecarboxamide, N-[(3,4-dichlorophenyl)methyl]-2-(3-methyl-1-piperidinyl)-4-(1-phenylcyclopentyl)-]",111
10,"CC1CCN(c2ncc(C(=O)NCc3ccc(Cl)c(Cl)c3)c(C3(c4ccccc4)CCCC3)n2)CC1 [Example 108, 5-pyrimidinecarboxamide, N-[(3,4-dichlorophenyl)methyl]-2-(4-methyl-1-piperidinyl)-4-(1-phenylcyclopentyl)-]",37
11,"O=C(NCc1ccc(Cl)cc1Cl)c1cnc(NC2CC2)nc1C1(c2ccccc2)CCCC1 [Example 109, 5-pyrimidinecarboxamide, 2-(cyclopropylamino)-N-[(2,4-dichlorophenyl)methyl]-4-(1-phenylcyclopentyl)-]",504
12,"CC1CCC(Nc2ncc(C(=O)NCc3ccc(Cl)cc3Cl)c(C3(c4ccccc4)CCCC3)n2)CC1 (centres unmarked) [Example 110, 5-pyrimidinecarboxamide, N-[(2,4-dichlorophenyl)methyl]-2-[(4-methylcyclohexyl)amino]-4-(1-phenylcyclopentyl)-]",68
13,"CC1CCCN(c2ncc(C(=O)NCc3ccc(Cl)cc3Cl)c(C3(c4ccccc4)CCCC3)n2)C1 (centres unmarked) [Example 112, 5-pyrimidinecarboxamide, N-[(2,4-dichlorophenyl)methyl]-2-(3-methyl-1-piperidinyl)-4-(1-phenylcyclopentyl)-]",64
14,"CC1CCN(c2ncc(C(=O)NCc3ccc(Cl)cc3Cl)c(C3(c4ccccc4)CCCC3)n2)CC1 [Example 113, 5-pyrimidinecarboxamide, N-[(2,4-dichlorophenyl)methyl]-2-(4-methyl-1-piperidinyl)-4-(1-phenylcyclopentyl)-]",10
15,"CCC(C)Nc1ncc(C(=O)NCc2ccc(Cl)cc2Cl)c(C2(c3ccccc3)CCCC2)n1 (centres unmarked) [Example 114, 5-pyrimidinecarboxamide, N-[(2,4-dichlorophenyl)methyl]-2-[(1-methylpropyl)amino]-4-(1-phenylcyclopentyl)-]",102
16,"O=C(NCc1ccc(Cl)cc1Cl)c1cnc(NC2CCCC2)nc1C1(c2ccccc2)CCCC1 [Example 115, 5-pyrimidinecarboxamide, 2-(cyclopentylamino)-N-[(2,4-dichlorophenyl)methyl]-4-(1-phenylcyclopentyl)-]",136
17,"CC1CCC(Nc2ncc(C(=O)NCc3ccc(F)cc3F)c(C3(c4ccccc4)CCCC3)n2)CC1 (centres unmarked) [Example 116, 5-pyrimidinecarboxamide, N-[(2,4-difluorophenyl)methyl]-2-[(4-methylcyclohexyl)amino]-4-(1-phenylcyclopentyl)-]",85
18,"CC1CCCN(c2ncc(C(=O)NCc3ccc(F)cc3F)c(C3(c4ccccc4)CCCC3)n2)C1 (centres unmarked) [Example 118, 5-pyrimidinecarboxamide, N-[(2,4-difluorophenyl)methyl]-2-(3-methyl-1-piperidinyl)-4-(1-phenylcyclopentyl)-]",37
19,"CC1CCN(c2ncc(C(=O)NCc3ccc(F)cc3F)c(C3(c4ccccc4)CCCC3)n2)CC1 [Example 119, 5-pyrimidinecarboxamide, N-[(2,4-difluorophenyl)methyl]-2-(4-methyl-1-piperidinyl)-4-(1-phenylcyclopentyl)-]",122
20,"CCC(C)Nc1ncc(C(=O)NCc2ccc(F)cc2F)c(C2(c3ccccc3)CCCC2)n1 (centres unmarked) [Example 120, 5-pyrimidinecarboxamide, N-[(2,4-difluorophenyl)methyl]-2-[(1-methylpropyl)amino]-4-(1-phenylcyclopentyl)-]",62
21,"O=C(NCc1ccc(F)cc1F)c1cnc(NC2CCCC2)nc1C1(c2ccccc2)CCCC1 [Example 121, 5-pyrimidinecarboxamide, 2-(cyclopentylamino)-N-[(2,4-difluorophenyl)methyl]-4-(1-phenylcyclopentyl)-]",24

# The remaining lines, values ahead:
row,EC50 [nM],SMILES
1,192,"O=C(NCc1ccc(Cl)cc1Cl)c1cnc(N2CCCC2)nc1C1(c2ccccc2)CCCC1 [Example 111, 5-pyrimidinecarboxamide, N-[(2,4-dichlorophenyl)methyl]-4-(1-phenylcyclopentyl)-2-(1-pyrrolidinyl)-]"
2,127,"O=C(NCc1ccc(F)cc1F)c1cnc(N2CCCC2)nc1C1(c2ccccc2)CCCC1 [Example 117, 5-pyrimidinecarboxamide, N-[(2,4-difluorophenyl)methyl]-4-(1-phenylcyclopentyl)-2-(1-pyrrolidinyl)-]"
3,10,"O=C(NCc1cc(F)cc(C(F)(F)F)c1)c1cnc(NC2CC2)nc1C1(c2ccccc2)CCCC1 [Example 122, 5-pyrimidinecarboxamide, 2-(cyclopropylamino)-N-[[3-fluoro-5-(trifluoromethyl)phenyl]methyl]-4-(1-phenylcyclopentyl)-]"
4,10,"CC1CCC(Nc2ncc(C(=O)NCc3cc(F)cc(C(F)(F)F)c3)c(C3(c4ccccc4)CCCC3)n2)CC1 (centres unmarked) [Example 123, 5-pyrimidinecarboxamide, N-[[3-fluoro-5-(trifluoromethyl)phenyl]methyl]-2-[(4-methylcyclohexyl)amino]-4-(1-phenylcyclopentyl)-]"
5,240,"O=C(NCc1cc(F)cc(C(F)(F)F)c1)c1cnc(N2CCCC2)nc1C1(c2ccccc2)CCCC1 [Example 124, 5-pyrimidinecarboxamide, N-[[3-fluoro-5-(trifluoromethyl)phenyl]methyl]-4-(1-phenylcyclopentyl)-2-(1-pyrrolidinyl)-]"
6,375,"CN1CCN(c2ncc(C(=O)NCc3cc(F)cc(C(F)(F)F)c3)c(C3(c4ccccc4)CCCC3)n2)CC1 [Example 125, 5-pyrimidinecarboxamide, N-[[3-fluoro-5-(trifluoromethyl)phenyl]methyl]-2-(4-methyl-1-piperazinyl)-4-(1-phenylcyclopentyl)-]"
7,319,"CC1CCCN(c2ncc(C(=O)NCc3cc(F)cc(C(F)(F)F)c3)c(C3(c4ccccc4)CCCC3)n2)C1 (centres unmarked) [Example 126, 5-pyrimidinecarboxamide, N-[[3-fluoro-5-(trifluoromethyl)phenyl]methyl]-2-(3-methyl-1-piperidinyl)-4-(1-phenylcyclopentyl)-]"
8,10,"CC1CCN(c2ncc(C(=O)NCc3cc(F)cc(C(F)(F)F)c3)c(C3(c4ccccc4)CCCC3)n2)CC1 [Example 127, 5-pyrimidinecarboxamide, N-[[3-fluoro-5-(trifluoromethyl)phenyl]methyl]-2-(4-methyl-1-piperidinyl)-4-(1-phenylcylopentyl)-]"
9,10,"CCC(C)Nc1ncc(C(=O)NCc2cc(F)cc(C(F)(F)F)c2)c(C2(c3ccccc3)CCCC2)n1 (centres unmarked) [Example 128, 5-pyrimidinecarboxamide, N-[[3-fluoro-5-(trifluoromethyl)phenyl]methyl]-2-[(1-methylpropyl)amino]-4-(1-phenylcyclopentyl)-]"
10,20,"CN(C)CCNc1ncc(C(=O)NCc2cc(F)cc(C(F)(F)F)c2)c(C2(c3ccccc3)CCCC2)n1 [Example 129, 5-pyrimidinecarboxamide, 2-[[2-(dimethylamino)ethyl]amino]-N-[[3-fluoro-5-(trifluoromethyl)phenyl]methyl]-4-(1-phenylcyclopentyl)-]"
11,875,"O=C(NCc1cc(F)cc(C(F)(F)F)c1)c1cnc(NC2CCCC2)nc1C1(c2ccccc2)CCCC1 [Example 130, 5-pyrimidinecarboxamide, 2-(cyclopentylamino)-N-[[3-fluoro-5-(trifluoromethyl)phenyl]methyl]-4-(1-phenylcyclopentyl)-]"
